Assay [1] addresses T1, Cholecystokinin receptor type A (Rattus norvegicus, UniProt P30551).
T1 sequence (P30551 whole entry): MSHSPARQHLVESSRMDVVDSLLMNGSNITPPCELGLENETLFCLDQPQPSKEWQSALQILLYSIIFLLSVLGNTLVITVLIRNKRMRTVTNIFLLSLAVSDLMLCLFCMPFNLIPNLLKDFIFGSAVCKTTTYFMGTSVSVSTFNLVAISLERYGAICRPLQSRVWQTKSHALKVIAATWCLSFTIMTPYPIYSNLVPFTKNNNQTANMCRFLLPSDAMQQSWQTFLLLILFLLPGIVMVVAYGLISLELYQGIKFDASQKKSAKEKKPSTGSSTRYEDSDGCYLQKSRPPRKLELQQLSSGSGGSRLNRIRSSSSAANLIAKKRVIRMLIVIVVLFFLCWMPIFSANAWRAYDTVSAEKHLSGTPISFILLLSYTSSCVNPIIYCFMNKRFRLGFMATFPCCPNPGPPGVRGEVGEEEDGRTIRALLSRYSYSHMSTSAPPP
Put plainly: Displacement of [125I]D-Tyr-Gly-[(Nle28,31)CCK-26-33] from rat CCK receptor expressed in CHO cells. It is filed as cell-based. In general terms: In a radioligand displacement assay an active substance lowers the binding of a labelled ligand.

In assay [2] the target is T2, Cholecystokinin receptor type A (Rattus norvegicus) (UniProt P30551).
T2 sequence (whole entry): T1 sequence (P30551 whole entry)
The assay is described as follows: Activity at CCK receptor in SD rat at 1 uM expressed in pancreatic acinar cell line. In kind it is functional. Particulars: filed as antagonist.

Assay [3] deals with T1, Cholecystokinin receptor type A. Put plainly: Intrinsic agonistic activity at CCK receptor in SD rat at 1 uM expressed in pancreatic acinar cell line. It is filed as functional.

Structures are written as SMILES.

With `COc1ccc(N(C)C(=O)CN2C(=O)[C@H](NC(=O)Nc3cccc(C(=O)c4ccccc4)c3)C(=O)N(c3ccccc3)c3ccccc32)cc1`, the half-maximal inhibitory concentration (IC50) – broadly, the point on the concentration scale where inhibition reaches its midpoint – in assay [1] is 0.49 µM.

Regarding `COc1ccc(N(C(=O)CN2C(=O)[C@@H](NC(=O)Nc3cccc(C(=O)c4ccccc4)c3)C(=O)N(c3ccccc3)c3ccccc32)C(C)C)cc1`, in assay [2], the Activity entry was “Antagonist”. The same molecule came in with an IC50 in assay [1] of 0.71 µM.

As for `COc1ccc(N(C(=O)CN2C(=O)[C@H](NC(=O)Nc3cccc(C(=O)c4ccccc4)c3)C(=O)N(c3ccccc3)c3ccccc32)C(C)C)cc1`, the EC50 (in general, the midpoint of the concentration-response curve) in assay [3] was determined as 0.15 µM. Also, the IC50 in assay [1] was determined as 0.061 µM.

Regarding `COc1ccc(N(C)C(=O)CN2C(=O)[C@@H](NC(=O)Nc3cccc(C(=O)c4ccccc4)c3)C(=O)N(c3ccccc3)c3ccccc32)cc1`, in assay [1], the IC50 turned out to be 0.47 µM. That is a sub-micromolar value.

The record behind these values is ChEMBL document CHEMBL1148618, “Novel benzodiazepine photoaffinity probe stereoselectively labels a site deep within the membrane-spanning domain of the cholecystokinin receptor” (J Med Chem, 2006).
